# According to patent publication US20240360194A1, “New Peptides as Potent and Selective GIP Receptor Agonists” (Sanofi, priority 2021, published 2024):
# Numbered stars: 1 amine (or outer) side, 2 acyl side, 3 side chain; on linkers, the order of the positions; unused ones are H or OH. Square brackets hold non-standard residues; d marks the D form. Side chains are listed from the residue outwards. Peptide text beside a SMILES is read from it. * marks the point of attachment. C18 diacid = O=C(O)CCCCCCCCCCCCCCCCC(=O)*; γGlu = O=C(O)[C@H](CCC(=O)[*:2])N[*:1]; Iva = CC[C@](C)(N)C(=O)O; AEEA = NCCOCCOCC(=O)O; Aib = CC(C)(N)C(=O)O
# T1: human GIP receptor (Homo sapiens, UniProt P48546)
# T1 construct: human adipocytes endogenously expressing the human GIP receptor; host or cells: human preadipocytes (Lonza) differentiated to adipocytes
# T1 sequence (P48546 22-466): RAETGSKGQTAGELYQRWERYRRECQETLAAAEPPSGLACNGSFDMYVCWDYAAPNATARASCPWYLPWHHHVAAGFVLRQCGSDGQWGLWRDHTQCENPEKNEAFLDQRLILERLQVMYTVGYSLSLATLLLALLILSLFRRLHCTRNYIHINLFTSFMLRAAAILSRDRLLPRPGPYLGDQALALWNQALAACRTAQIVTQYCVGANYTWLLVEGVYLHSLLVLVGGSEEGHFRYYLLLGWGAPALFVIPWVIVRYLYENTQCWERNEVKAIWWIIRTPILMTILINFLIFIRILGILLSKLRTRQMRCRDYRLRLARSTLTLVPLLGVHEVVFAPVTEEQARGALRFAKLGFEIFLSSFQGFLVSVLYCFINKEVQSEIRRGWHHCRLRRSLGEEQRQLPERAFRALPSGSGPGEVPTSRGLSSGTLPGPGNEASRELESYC
# T2: human GIP receptor (hGIPR) (Homo sapiens, UniProt P48546)
# T2 sequence (P48546 22-466): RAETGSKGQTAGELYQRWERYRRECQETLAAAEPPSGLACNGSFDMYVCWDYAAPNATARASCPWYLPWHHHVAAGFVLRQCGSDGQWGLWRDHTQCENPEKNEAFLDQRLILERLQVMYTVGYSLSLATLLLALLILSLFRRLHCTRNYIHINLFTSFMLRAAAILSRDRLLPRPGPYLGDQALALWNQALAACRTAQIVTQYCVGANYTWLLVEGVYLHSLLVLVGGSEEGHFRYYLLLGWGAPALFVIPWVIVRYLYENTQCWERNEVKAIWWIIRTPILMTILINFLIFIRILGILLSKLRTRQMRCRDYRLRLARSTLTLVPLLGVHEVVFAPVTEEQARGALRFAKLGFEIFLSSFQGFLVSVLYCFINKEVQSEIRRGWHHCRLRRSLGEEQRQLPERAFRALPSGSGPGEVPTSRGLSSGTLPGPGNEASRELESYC
# T3: human GIP receptor (human, UniProt P48546 22-466)
# T3 sequence (looked up): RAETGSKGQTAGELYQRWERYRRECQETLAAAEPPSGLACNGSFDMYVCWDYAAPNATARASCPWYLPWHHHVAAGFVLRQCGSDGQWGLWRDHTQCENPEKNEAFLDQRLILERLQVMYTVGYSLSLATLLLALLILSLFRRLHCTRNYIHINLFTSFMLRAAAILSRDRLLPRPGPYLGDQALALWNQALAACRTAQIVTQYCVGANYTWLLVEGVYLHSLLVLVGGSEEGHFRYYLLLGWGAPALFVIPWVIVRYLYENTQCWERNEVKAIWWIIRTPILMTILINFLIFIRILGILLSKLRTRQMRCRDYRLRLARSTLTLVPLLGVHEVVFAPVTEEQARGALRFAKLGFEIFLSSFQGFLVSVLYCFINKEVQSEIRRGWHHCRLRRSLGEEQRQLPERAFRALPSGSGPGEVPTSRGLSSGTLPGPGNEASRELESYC
# Columns and labels:
# [1] = Chemical stability assessment (UHPLC-UV purity loss on storage in solution); format: physicochemical; conditions: Chemical stability buffer system A: 20 mM phosphate buffer pH 7.4; ~300 μM
# Protocol: Purity of a peptide batch was determined through UHPLC/MS prior to chemical stability measurement. The target concentration was 300 μM pure compound. Solutions from solid samples were prepared in the following buffer systems with a concentration of ˜300 μM compound based on the previously determined % purity: • Chemical stability buffer system A) 20 mM phosphate buffer pH 7.4, • Chemical stability buffer system B) 8 mM phosphate buffer pH 7.4, 14 mg/ml propylene glycol, 5.5 mg/ml phenol • Chemical stability buffer system C) 100 mM phosphate buffer pH 7.4, 2.7 mg/ml m-cresol
# Prepared solutions were filtered through […] pore size and filled into sterilized glass containers under laminar flow conditions.
# Glass containers were stored for 28 days at 5 and 40° C. After this time, the samples were centrifuged for 15 min at 2500 RCF. Then 1.5 μl of the undiluted supernatant were analysed with UHPLC-UV.
# The chemical stability was rated through the relative loss of purity calculated by the equation: […]
# The purity is calculated as
# The analytical methods used were Analytical UHPLC Method B or C.
# Peptide samples were prepared in Chemical stability buffer system A or B and stability was assessed as described in Methods.
# [2] = Solubility assessment (UHPLC-UV of supernatant, target 10 mg/ml); format: physicochemical
# Procedure, shortened: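 Peptides at 10 mg/ml (purity-corrected) in 100 mM phosphate pH 7.4, optionally with 2.7 mg/ml m-cresol; gentle agitation 1 h, then 5° C. overnight (24 h). Supernatant after 15 min centrifugation at 2500 RCF quantified by UHPLC-UV, with sequence-based extinction coefficients.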
# [3] = molecular target: human GLP-1 receptor (hGLP-1R) (Homo sapiens, UniProt P43220); test: In vitro cellular cAMP assay for GLP-1 receptor efficacy (HEK-293 cell line over-expressing receptor); format: cell-based; conditions: HEK-293, 0.1% BSA
# Chain of human GLP-1 receptor (hGLP-1R) (P43220 24-463): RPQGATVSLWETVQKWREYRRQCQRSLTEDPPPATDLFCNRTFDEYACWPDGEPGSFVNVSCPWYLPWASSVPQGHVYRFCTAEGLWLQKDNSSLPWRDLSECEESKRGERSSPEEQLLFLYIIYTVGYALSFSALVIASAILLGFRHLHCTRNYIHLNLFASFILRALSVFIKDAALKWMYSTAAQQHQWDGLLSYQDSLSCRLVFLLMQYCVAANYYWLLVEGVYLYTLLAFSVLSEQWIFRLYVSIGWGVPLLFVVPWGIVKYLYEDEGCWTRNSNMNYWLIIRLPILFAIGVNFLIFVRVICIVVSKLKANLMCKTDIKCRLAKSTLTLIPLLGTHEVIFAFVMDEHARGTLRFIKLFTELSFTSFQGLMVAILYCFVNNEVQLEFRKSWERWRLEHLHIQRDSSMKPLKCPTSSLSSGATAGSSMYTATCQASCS
# human GIP receptor [4] = molecular target: T1, human GIP receptor; test: In vitro cellular cAMP assay for GIP receptor efficacy (human adipocytes); format: cell-based; conditions: read-out: hGIPR Emax
# Procedure, shortened: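 Human preadipocytes expanded, then differentiated 6 days (insulin, dexamethasone, PPARγ agonist, 200 μM IBMX, L-thyroxine) before plating at 5000 cells/well. Test compound applied 30 min at room temperature; cAMP measured by HTRF after 1 h with lysis-buffer reagents, read as 665/620 nm fluorescence ratio.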
# [5] = molecular target: T2, human GIP receptor (hGIPR); test: Binding assay, displacement of [125I]GIP from HEK-293 membranes over-expressing GIPR (SPA); conditions: [125I]GIP displacement
# Procedure, shortened: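 Membranes from HEK-293 cells over-expressing human GIPR or GLP-1R, isolated by homogenising, sonicating and ultracentrifuging at 100000×g into HEPES/EDTA/NaCl buffer with protease inhibitors, were used for binding.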
# human GIP receptor [6] = molecular target: T3, human GIP receptor; test: cell-based or functional assay
# human GLP-1 receptor [7] = molecular target: T4, human GLP-1 receptor (human, UniProt P43220 24-463); test: cell-based or functional assay
# human GIP receptor [8] = molecular target: T3, human GIP receptor; test: cell-based or functional assay; remark: listed apart in the source
# human GLP-1 receptor [9] = molecular target: T4, human GLP-1 receptor; test: displacement of [125I]GLP-1 from HEK-293 membranes expressing hGLP-1R (SPA beads)
Molecule,Relative purity loss over 28 days at 40° C. [1],"Soluble amount ([2]; 24 h, pH 7.4)","solubility at 24 h ([2]; pH 7.4, Soluble amount)",EC50 [3],Emax (human GIP receptor [4]),IC50 [5],"EC50 hGIPR 0% HSA (cAMP, HEK-293) (human GIP receptor [6])","EC50 hGIPR 0.1% BSA (cAMP, HEK-293) (human GIP receptor [6])","EC50 hGLP-1R 0.1% BSA (cAMP, HEK-293) (human GLP-1 receptor [7])","hGIPR EC50 (cAMP, human adipocytes) (human GIP receptor [8])","hGIPR Emax (cAMP, human adipocytes) (human GIP receptor [8])",IC50 (human GLP-1 receptor [9])
"CC[C@H](C)[C@H](NC(=O)[C@H](CCCNC(=N)N)NC(=O)[C@H](CC(=O)O)NC(=O)[C@H](CCCCNC(=O)COCCOCCNC(=O)COCCOCCNC(=O)CC[C@H](NC(=O)CCCCCCCCCCCCCCCCC(=O)O)C(=O)O)NC(=O)C(C)(C)NC(=O)[C@@H](NC(=O)[C@H](CO)NC(=O)[C@H](CC(C)C)NC(=O)[C@H](CC(=O)O)NC(=O)[C@H](CO)NC(=O)[C@@H](NC(=O)[C@H](Cc1ccccc1)NC(=O)[C@@H](NC(=O)CNC(=O)[C@H](CCC(=O)O)NC(=O)C(C)(C)NC(=O)[C@@H](N)Cc1ccc(O)cc1)[C@@H](C)O)[C@@H](C)CC)[C@@H](C)CC)C(=O)N[C@@H](Cc1c[nH]cn1)C(=O)N[C@@H](CCC(N)=O)C(=O)NC(C)(C)C(=O)N[C@@H](CCC(=O)O)C(=O)N[C@@H](Cc1ccccc1)C(=O)N[C@H](C(=O)N[C@@H](CCC(=O)O)C(=O)N[C@@H](Cc1c[nH]c2ccccc12)C(=O)N[C@@H](CC(C)C)C(=O)N[C@@H](CC(C)C)C(=O)N[C@@H](C)C(=O)N[C@@H](CCC(N)=O)C(=O)N[C@@H](CCC(=O)O)C(=O)N1CCC[C@H]1C(=O)N[C@@H](CO)C(=O)N[C@@H](CO)C(=O)NCC(=O)N[C@@H](C)C(=O)N1CCC[C@H]1C(=O)N1CCC[C@H]1C(=O)N1CCC[C@H]1C(=O)N[C@@H](CO)C(N)=O)[C@@H](C)CC [SEQ ID NO: 29, H2N-Y-Aib-E-G-T-F-I-S-D-L-S-I-Aib-K[{AEEA}2-gGlu-C18OH]-D-R-I-H-Q-Aib-E-F-I-E-W-L-L-A-Q-E-P-S-S-G-A-P-P-P-S-NH2] (H-Y[Aib]EGTFISDLSI[Aib]K([AEEA-AEEA-γGlu-C18 diacid])DRIHQ[Aib]EFIEWLLAQEPSSGAPPPS-NH2)",5.6%,9.1 mg/mL,8000 µg/mL,> 10 nM,119%,0.2 nM,,,,,,
"H-Y[Aib]EGTFISDLSI[Aib]K([AEEA-AEEA-γGlu-C18 diacid])DRIHQ[Aib]EFIEW[Iva]LAQGPSSGAPPPS-NH2 (Synthetic peptide, 39 residues) [SEQ ID NO: 31]",,,,,,,0.15 pM,6.96 pM,> 10 nM,0.7 nM,121%,292 nM
